{
  "source": "patent US7071218B2",
  "about": "“N-substituted heterocycles for the treatment of hypercholesteremia, dyslipidemia and other metabolic disorders; cancer, and other diseases” (Incyte San Diego Incorporated, priority 2001, dated 2006)",
  "key": {"3T3-L1 cells": {"system": "3T3-L1 cells", "assay": "3T3-L1 adipocyte differentiation (lipid content), alone or with rosiglitazone (BRL49653)", "assay_type": "cell-based, mouse", "conditions": "7 days of treatment", "source_text": "The mouse preadipocyte cell line 3T3-L1 has been extensively used to study adipocyte differentiation. Upon stimulation with differentiating agents, preadipocytes typically undergo one cell cycle expansion and then they are growth arrested and dramatically change their shape to become more rounded cells, loaded with lipids, in a fashion closely reflecting adipogenesis in vivo. In this well-known process of differentiation, peroxisome proliferator activated receptor gamma (PPARγ) and retinoid X receptor (RXR) play a key role. PPARγ binds as an obligatory heterodimer with RXR to specific responsive sequences in the promoter region of target genes. In the particular case of PPARγ/RXR heterodimers, both receptors can be activated via their specific ligands. As a consequence of such activation, adipocyte-specific genes are turned on (C/EBP, aP2, LPL, adipsin, etc) and adipocyte differentiation results. Because lipid accumulation is the endpoint of adipocyte differentiation, the quantification of lipids which have accumulated in cells upon treatment with the compound(s) of interest, will indicate the ability of that compound to trigger adipocyte differentiation. More importantly, the potency of that compound can be estimated as well based on the total amount of lipids accumulated. The amount of lipid measured at the end of the assay for each tested compound is here compared to that of Compound 73 at 0.1 μM, which is considered 100% (see FIG. 11A).\nIn the particular case of measuring the potential antagonistic activity of some compounds, the putative antagonist is combined together with an agonist (such as the PPARγ agonist BRL49653). Thus, the amount of lipids accumulated in response to BRL49653 (considered as 100% in this case), is decreased by the compound with antagonistic activity (see FIG. 11B).\nMaterials and Methods: Mouse embryo fibroblast 3T3-L1 cell line, from American Type Culture Collection (ATCC), was used as a model of adipocyte differentiation.\nGrowing medium (GM): DME Dulbecco's modified Eagle's medium containing 4500 mg/L glucose; 4 mM L-glutamine; 10 U/ml Pen-G; 10 mcg/ml and 10% Calf Serum (CS).\nDifferentiation medium (DM): DME Dulbecco's modified Eagle's medium containing 4500 mg/L glucose; 4 mM L-glutamine; 10 U/ml Pen-G; 10 mcg/ml and 10% Fetal Calf Serum (FCS). Cells are always kept at 10% CO2.\nCells were seeded at 3,000 cells/well in 96 well-tissue culture plates in growing medium.\nTwo days after reaching confluence, cells were treated with the different compounds of interest in DM (Day 0). Drugs were replaced every 2–3 days in DM. Differentiation was assessed after 7 days of treatment, by measuring the lipid content in the cells, using the Triglyceride (INFINITY) reagent (Quantitative assay). • Controls: All cells, including control cells (vehicle), are treated with the same volume of dimethyl sulfoxide (DMSO) never exceeding 0.1% final solvent concentration. As a positive control for differentiation, cells were treated with 10 μg insulin per ml and 2.5 μM dexamethasone (Ins/Dex)."}, "[1]": {"system": "human cancer cell lines (A549, MDA-MB-468, PC-3, Bx-PC3)", "assay": "MTT anti-cancer assay, the other cancer cell lines of the panel", "assay_type": "cell-based", "conditions": "at 10 μM, 6 days, cell lines other than MDA-MB-468 (A549, PC-3, Bx-PC3)", "source_text": "The anti-cancer activity of the compounds of the invention herein have been tested in in vitro assays using a microculture assay with 3-(4,5-dimethylthiazol-2-yl)-2,5-diphenyltetrazolium bromide (“MTT”) a test well known to those skilled in the art. This assay has an advantage over in vivo assay in that results are obtained within a week as opposed to several months. The assay can be carried out in 96-well microtiter plates. The MTT assay is based on the production of a dark blue formazan product by dehydrogenase in the mitochondria of live tumor cells after exposure to drug for 6 days [M. C. […] Thus, only live cells are stained and can be measured at 595 nm. […]\nTreatment: Before commencing drug treatment, cells were replenished with media containing 0.5% FCS. […] As an end point, the amount of surviving cells (Live cells) was measured using a standard […] assay (MTT based), and calculated as percentage of cells treated with vehicle (DMSO) alone (% control).\nMTT assay: The assay is based on the cleavage of the yellow tetrazolium salt MTT to purple formazan crystals by dehydrogenase activity in active mitochondria. […] The formazan crystals formed are solubilized and the resulting colored solution is quantified using a scanning multiwell spectrophotometer. […]"}},
  "data": [
    {"smiles": "CN(C)c1cc2c(cc1-c1ccc3cc(/C=C4\\SC(=S)N(CC(=O)O)C4=O)ccc3c1)C(C)(C)CCC2(C)C", "note": "[Compound 7, {5-[6-(3-Dimethylamino-5,5,8,8-tetramethyl-5,6,7,8-tetrahydro-naphthalen-2-yl)-naphthalen-2-ylmethylene]-4-oxo-2-thioxo-thiazolidin-3-yl}-acetic acid]", "values": [
      {"measurement": "lipid accumulation / differentiation of 3T3-L1 cells by the compound alone", "setting": "3T3-L1 cells; 1e-10M to 1e-5M", "result": "lacked the ability to differentiate 3T3-L1 cells by themselves"},
      {"measurement": "inhibition of adipocyte differentiation / lipid accumulation induced by rosiglitazone (BRL49653)", "setting": "3T3-L1 cells; in combination with rosiglitazone", "result": "strongly inhibited"},
      {"measurement": "cells killed", "setting": "[1]", "result": "≤ 50", "unit": "%"}
    ]}
  ]
}
